GI50 and TGI data for eight molecules are collected here from PubChem BioAssay (NCI).

Where “and” joins values, the source holds several entries; their conditions need not be identical. Identical values can stand only once.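 Growth conditions: 96-well plates. Treatment: test compound, 48 hours, 5 concentrations. Analysis: linear interpolation between bracketing concentrations; unreached endpoints set to highest concentration. Here, GI50 denotes the concentration required for 50% inhibition of growth. TGI denotes the concentration required for complete inhibition of growth.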

Test systems include SN12C renal; NCI-H23 lung; A549 NSCLC; SW-620 colon; MCF7 breast; DU-145 prostate; COLO 205 colon; HCC-2998 colon; LOX IMVI melanoma; T-47D breast.
What all share (assay): NCI tumour cell line growth inhibition, 48 h

On to `CC(C)CCN[C@@H]1CCc2cc(O)c(N3CC(=O)NS3(=O)=O)c(F)c2C1`, for which the GI50 with SN12C renal, in the experiment on NCI-H23 lung, with A549 NSCLC, in the experiment on SW-620 colon, in the experiment with MCF7 breast and with DU-145 prostate was more than 100 µM in each case. The GI50 in the experiment with COLO 205 colon is more than 100 µM; with HCC-2998 colon, more than 100 µM; in the experiment with LOX IMVI melanoma it was 52.7 µM; in the experiment on T-47D breast, more than 100 µM. The TGI in the experiment on SN12C renal, in the experiment with NCI-H23 lung, in the experiment on A549 NSCLC, in the experiment on SW-620 colon, with MCF7 breast and in the experiment on DU-145 prostate was more than 100 µM each time. In addition, the TGI in the experiment with COLO 205 colon, with HCC-2998 colon, in the experiment with LOX IMVI melanoma and with T-47D breast was more than 100 µM each time.

On to `CCN(CC)CCSCCCNc1c2ccc(Cl)cc2nc2ccc(OC)cc12`, for which the GI50 in the experiment with SN12C renal is 1.04 µM; with NCI-H23 lung it was 1.32 µM; with A549 NSCLC, 0.98 µM; with SW-620 colon it was 0.511 µM; with MCF7 breast, 0.791 µM; with DU-145 prostate it was 0.633 µM. Besides, the GI50 in the experiment with COLO 205 colon is 0.8 µM; with HCC-2998 colon it was 1.02 µM; with LOX IMVI melanoma, 0.337 µM; in the experiment on T-47D breast it was 2.05 µM. For the same molecule, the TGI in the experiment with SN12C renal was 3.48 µM; with NCI-H23 lung it was 3.28 µM; in the experiment on A549 NSCLC it was 3.03 µM; with SW-620 colon it was 3.33 µM; in the experiment on MCF7 breast, 3.26 µM; in the experiment on DU-145 prostate it was 3.01 µM. Also, the TGI is 2.25 µM with COLO 205 colon, 2.42 µM with HCC-2998 colon, 1.34 µM in the experiment with LOX IMVI melanoma and 4.82 µM with T-47D breast.

For the molecule `C=CCCCc1ccc(C(O)CCCCCCCCCCCC)o1` (centres undefined), the GI50 in the experiment on SN12C renal was 17.2 µM; in the experiment with NCI-H23 lung, 22.3 µM; in the experiment on A549 NSCLC, 30.4 µM; with SW-620 colon, 22.8 µM; with MCF7 breast, 17.6 µM; with DU-145 prostate, 19 µM. Also, the GI50 with COLO 205 colon is 19.6 µM; in the experiment on HCC-2998 colon, 22.1 µM; with LOX IMVI melanoma, 16.9 µM; in the experiment on T-47D breast it was 15.1 µM. Besides, the TGI in the experiment on SN12C renal worked out at 31.4 µM; with NCI-H23 lung, 52.5 µM; in the experiment on A549 NSCLC it was 96.3 µM; in the experiment on SW-620 colon, 62 µM; in the experiment on MCF7 breast it was 48.3 µM; in the experiment on DU-145 prostate it was 35.4 µM. For the same molecule, the TGI with COLO 205 colon was found to be 38.6 µM; with HCC-2998 colon, 55 µM; in the experiment with LOX IMVI melanoma, 31.1 µM; in the experiment with T-47D breast, 34.6 µM.

Take `COc1cc2c(c(OC3OC(CO)C(O)C(O)C3O)c1)C(=O)CC(c1ccc(O)cc1)O2` (centres undefined): the TGI in the experiment with SN12C renal, in the experiment with NCI-H23 lung, in the experiment with A549 NSCLC, in the experiment with SW-620 colon, in the experiment on MCF7 breast and with DU-145 prostate was more than 100 µM in each case. The TGI with COLO 205 colon, with HCC-2998 colon, in the experiment on LOX IMVI melanoma and in the experiment on T-47D breast was more than 100 µM in each case.

On to `N#Cc1cc(S(=O)(=O)Nc2nc3ccccc3s2)c(SCc2ccccc2)cc1Cl`, for which the GI50 in the experiment on SN12C renal is 19.2 µM; with NCI-H23 lung, 22.4 µM; in the experiment with A549 NSCLC it was 15.4 µM; in the experiment with SW-620 colon, 19.8 µM; with MCF7 breast, 30.7 µM; in the experiment with DU-145 prostate, 24.4 µM. The GI50 was 26.5 µM with COLO 205 colon, 17.7 µM in the experiment on HCC-2998 colon, 20.8 µM with LOX IMVI melanoma and 22.8 µM in the experiment with T-47D breast. Further, the TGI in the experiment on SN12C renal was 41.5 µM; in the experiment on NCI-H23 lung, 57.7 µM; with A549 NSCLC, 35.3 µM; in the experiment with SW-620 colon, 43.7 µM; in the experiment with MCF7 breast it was more than 100 µM; in the experiment with DU-145 prostate it was 58.6 µM. For the same molecule, the TGI with COLO 205 colon was 88.6 µM; with HCC-2998 colon, 36.3 µM; with LOX IMVI melanoma, 48.2 µM; in the experiment with T-47D breast, 73.7 µM.

For the molecule `Cc1cccc(Nc2cnc(N)nc2N)c1`, the TGI in the experiment with SN12C renal, with NCI-H23 lung, with A549 NSCLC, with SW-620 colon, with MCF7 breast and in the experiment on DU-145 prostate was more than 100 µM throughout. Besides, the TGI with COLO 205 colon, in the experiment with HCC-2998 colon, with LOX IMVI melanoma and with T-47D breast was more than 100 µM in each case.

On to `CC(=O)Oc1ccc(C(c2ccc(OC(C)=O)cc2)c2ccccn2)cc1`, for which the GI50 is 0.558 µM in the experiment on SN12C renal; 5.08 µM in the experiment with NCI-H23 lung; 49.7 µM in the experiment on A549 NSCLC; 0.516 µM in the experiment on MCF7 breast; 98.2 µM with DU-145 prostate; 0.463 µM in the experiment on COLO 205 colon. Also, the values for the GI50 in the experiment on HCC-2998 colon, with LOX IMVI melanoma and in the experiment with T-47D breast were 11.3 µM, 52.7 µM and 0.204 µM, respectively. Further, the TGI with SN12C renal, in the experiment with NCI-H23 lung, with A549 NSCLC, in the experiment with SW-620 colon, in the experiment on MCF7 breast and in the experiment on DU-145 prostate was more than 100 µM each time. Also, the TGI is 36.5 µM and > 69.4 µM with COLO 205 colon; more than 100 µM in the experiment with HCC-2998 colon; more than 100 µM in the experiment on LOX IMVI melanoma; 0.532 µM and 1.19 µM with T-47D breast.

As to `CNC(=O)OCC1C2=C(C(=O)C(C)=C(N)C2=O)N2CC3C(N3C)C12OC` (centres undefined), the TGI with SN12C renal was more than 100 µM; in the experiment with NCI-H23 lung, 16.3 µM; in the experiment on A549 NSCLC it was 29.5 µM; in the experiment with SW-620 colon it was 24.2 µM; with MCF7 breast, more than 100 µM; in the experiment with DU-145 prostate it was 55 µM. For the same molecule, the TGI in the experiment with COLO 205 colon was 31.7 µM; in the experiment on HCC-2998 colon, 24.8 µM; with LOX IMVI melanoma, 33.9 µM; in the experiment on T-47D breast, more than 100 µM.
